Data reported in the NIST ThermoML archive (doi:10.1016/j.jct.2016.01.019).
± gives the expanded uncertainty stated by the source.

Columns and labels:
[1] = refractive index (Na D-line) (dimensionless); details: 94.64 kPa, Liquid, Standard Abbe refractometry
[2] = refractive index (other wavelength) (dimensionless); details: 94.64 kPa, Liquid, Standard Abbe refractometry

**Q.** With `OCCCO` [propan-1,3-diol] as the compound, how does the refractive index ([1]; 293.15 K) read?
**A.** 1.43932 ± 0.002

**Q.** And the refractive index ([1]; 298.15 K)?
**A.** 1.43796 ± 0.002

**Q.** What about the refractive index ([1]; 303.15 K) of the same compound?
**A.** 1.43665 ± 0.002

**Q.** And the refractive index ([1]; 308.15 K)?
**A.** 1.43523 ± 0.002

**Q.** And the refractive index ([1]; 313.15 K)?
**A.** 1.43385 ± 0.002

**Q.** And the refractive index ([1]; 318.15 K)?
**A.** 1.43255 ± 0.002

**Q.** What about the refractive index ([2]; 293.15 K, Wavelength=404.7 nm) of the same compound?
**A.** 1.45177 ± 0.002

**Q.** And the refractive index ([2]; 293.15 K, Wavelength=435.8 nm)?
**A.** 1.44842 ± 0.002

**Q.** And the refractive index ([2]; 293.15 K, Wavelength=486.1 nm)?
**A.** 1.4444 ± 0.002

**Q.** What about the refractive index ([2]; 293.15 K, Wavelength=546.1 nm) of the same compound?
**A.** 1.44112 ± 0.002

**Q.** And the refractive index ([2]; 293.15 K, Wavelength=587.6 nm)?
**A.** 1.43939 ± 0.002

**Q.** What about the refractive index ([2]; 293.15 K, Wavelength=632.8 nm) of the same compound?
**A.** 1.43781 ± 0.002

**Q.** What about the refractive index ([2]; 293.15 K, Wavelength=644 nm) of the same compound?
**A.** 1.43746 ± 0.002

**Q.** What about the refractive index ([2]; 293.15 K, Wavelength=706.5 nm) of the same compound?
**A.** 1.43577 ± 0.002

**Q.** And the refractive index ([2]; 298.15 K, Wavelength=404.7 nm)?
**A.** 1.45037 ± 0.002

**Q.** And the refractive index ([2]; 298.15 K, Wavelength=435.8 nm)?
**A.** 1.447 ± 0.002

**Q.** And the refractive index ([2]; 298.15 K, Wavelength=486.1 nm)?
**A.** 1.44301 ± 0.002

**Q.** And the refractive index ([2]; 298.15 K, Wavelength=546.1 nm)?
**A.** 1.43975 ± 0.002

**Q.** And the refractive index ([2]; 298.15 K, Wavelength=587.6 nm)?
**A.** 1.43802 ± 0.002

**Q.** What about the refractive index ([2]; 298.15 K, Wavelength=632.8 nm) of the same compound?
**A.** 1.43645 ± 0.002

**Q.** And the refractive index ([2]; 298.15 K, Wavelength=644 nm)?
**A.** 1.43611 ± 0.002

**Q.** What about the refractive index ([2]; 298.15 K, Wavelength=706.5 nm) of the same compound?
**A.** 1.43441 ± 0.002

**Q.** And the refractive index ([2]; 303.15 K, Wavelength=404.7 nm)?
**A.** 1.44902 ± 0.002

**Q.** What about the refractive index ([2]; 303.15 K, Wavelength=435.8 nm) of the same compound?
**A.** 1.44566 ± 0.002

**Q.** What about the refractive index ([2]; 303.15 K, Wavelength=486.1 nm) of the same compound?
**A.** 1.44168 ± 0.002

**Q.** What about the refractive index ([2]; 303.15 K, Wavelength=546.1 nm) of the same compound?
**A.** 1.43844 ± 0.002

**Q.** What about the refractive index ([2]; 303.15 K, Wavelength=587.6 nm) of the same compound?
**A.** 1.43671 ± 0.002

**Q.** And the refractive index ([2]; 303.15 K, Wavelength=632.8 nm)?
**A.** 1.43514 ± 0.002

**Q.** What about the refractive index ([2]; 303.15 K, Wavelength=644 nm) of the same compound?
**A.** 1.4348 ± 0.002

**Q.** What about the refractive index ([2]; 303.15 K, Wavelength=706.5 nm) of the same compound?
**A.** 1.43312 ± 0.002

**Q.** What about the refractive index ([2]; 308.15 K, Wavelength=404.7 nm) of the same compound?
**A.** 1.44755 ± 0.002

**Q.** What about the refractive index ([2]; 308.15 K, Wavelength=435.8 nm) of the same compound?
**A.** 1.44419 ± 0.002

**Q.** What about the refractive index ([2]; 308.15 K, Wavelength=486.1 nm) of the same compound?
**A.** 1.44027 ± 0.002

**Q.** What about the refractive index ([2]; 308.15 K, Wavelength=546.1 nm) of the same compound?
**A.** 1.43699 ± 0.002

**Q.** What about the refractive index ([2]; 308.15 K, Wavelength=587.6 nm) of the same compound?
**A.** 1.43529 ± 0.002

**Q.** And the refractive index ([2]; 308.15 K, Wavelength=632.8 nm)?
**A.** 1.43375 ± 0.002

**Q.** What about the refractive index ([2]; 308.15 K, Wavelength=644 nm) of the same compound?
**A.** 1.4334 ± 0.002

**Q.** And the refractive index ([2]; 308.15 K, Wavelength=706.5 nm)?
**A.** 1.4317 ± 0.002

**Q.** And the refractive index ([2]; 313.15 K, Wavelength=404.7 nm)?
**A.** 1.44615 ± 0.002

**Q.** What about the refractive index ([2]; 313.15 K, Wavelength=435.8 nm) of the same compound?
**A.** 1.4428 ± 0.002

**Q.** What about the refractive index ([2]; 313.15 K, Wavelength=486.1 nm) of the same compound?
**A.** 1.43888 ± 0.002

**Q.** And the refractive index ([2]; 313.15 K, Wavelength=546.1 nm)?
**A.** 1.43562 ± 0.002

**Q.** What about the refractive index ([2]; 313.15 K, Wavelength=587.6 nm) of the same compound?
**A.** 1.43392 ± 0.002

**Q.** What about the refractive index ([2]; 313.15 K, Wavelength=632.8 nm) of the same compound?
**A.** 1.43238 ± 0.002

**Q.** And the refractive index ([2]; 313.15 K, Wavelength=644 nm)?
**A.** 1.43203 ± 0.002

**Q.** What about the refractive index ([2]; 313.15 K, Wavelength=706.5 nm) of the same compound?
**A.** 1.43035 ± 0.002

**Q.** And the refractive index ([2]; 318.15 K, Wavelength=404.7 nm)?
**A.** 1.44474 ± 0.002

**Q.** What about the refractive index ([2]; 318.15 K, Wavelength=435.8 nm) of the same compound?
**A.** 1.44141 ± 0.002

**Q.** What about the refractive index ([2]; 318.15 K, Wavelength=486.1 nm) of the same compound?
**A.** 1.43754 ± 0.002

**Q.** What about the refractive index ([2]; 318.15 K, Wavelength=546.1 nm) of the same compound?
**A.** 1.43429 ± 0.002

**Q.** What about the refractive index ([2]; 318.15 K, Wavelength=587.6 nm) of the same compound?
**A.** 1.43261 ± 0.002

**Q.** And the refractive index ([2]; 318.15 K, Wavelength=632.8 nm)?
**A.** 1.43109 ± 0.002

**Q.** What about the refractive index ([2]; 318.15 K, Wavelength=644 nm) of the same compound?
**A.** 1.43075 ± 0.002

**Q.** What about the refractive index ([2]; 318.15 K, Wavelength=706.5 nm) of the same compound?
**A.** 1.42908 ± 0.002

**Q.** What does the source list for `CC(O)CO` (stereo not drawn) [1,2-propanediol]?
**A.** refractive index ([1]; 293.15 K): 1.43219 ± 0.002; refractive index ([1]; 298.15 K): 1.4303 ± 0.002; refractive index ([1]; 303.15 K): 1.42921 ± 0.002; refractive index ([1]; 308.15 K): 1.42746 ± 0.002; refractive index ([1]; 313.15 K): 1.42566 ± 0.002; refractive index ([1]; 318.15 K): 1.42386 ± 0.002; refractive index ([2]; 293.15 K, Wavelength=404.7 nm): 1.445 ± 0.002; refractive index ([2]; 293.15 K, Wavelength=435.8 nm): 1.44204 ± 0.002; refractive index ([2]; 293.15 K, Wavelength=486.1 nm): 1.43722 ± 0.002; refractive index ([2]; 293.15 K, Wavelength=546.1 nm): 1.43406 ± 0.002; refractive index ([2]; 293.15 K, Wavelength=587.6 nm): 1.43227 ± 0.002; refractive index ([2]; 293.15 K, Wavelength=632.8 nm): 1.43023 ± 0.002; refractive index ([2]; 293.15 K, Wavelength=644 nm): 1.43008 ± 0.002; refractive index ([2]; 293.15 K, Wavelength=706.5 nm): 1.42866 ± 0.002; refractive index ([2]; 298.15 K, Wavelength=404.7 nm): 1.4429 ± 0.002; refractive index ([2]; 298.15 K, Wavelength=435.8 nm): 1.43967 ± 0.002; refractive index ([2]; 298.15 K, Wavelength=486.1 nm): 1.43566 ± 0.002; refractive index ([2]; 298.15 K, Wavelength=546.1 nm): 1.43245 ± 0.002; refractive index ([2]; 298.15 K, Wavelength=587.6 nm): 1.4305 ± 0.002; refractive index ([2]; 298.15 K, Wavelength=632.8 nm): 1.429 ± 0.002; refractive index ([2]; 298.15 K, Wavelength=644 nm): 1.4289 ± 0.002; refractive index ([2]; 298.15 K, Wavelength=706.5 nm): 1.42701 ± 0.002; refractive index ([2]; 303.15 K, Wavelength=404.7 nm): 1.44135 ± 0.002; refractive index ([2]; 303.15 K, Wavelength=435.8 nm): 1.43785 ± 0.002; refractive index ([2]; 303.15 K, Wavelength=486.1 nm): 1.43417 ± 0.002; refractive index ([2]; 303.15 K, Wavelength=546.1 nm): 1.43096 ± 0.002; refractive index ([2]; 303.15 K, Wavelength=587.6 nm): 1.42927 ± 0.002; refractive index ([2]; 303.15 K, Wavelength=632.8 nm): 1.42774 ± 0.002; refractive index ([2]; 303.15 K, Wavelength=644 nm): 1.42734 ± 0.002; refractive index ([2]; 303.15 K, Wavelength=706.5 nm): 1.42571 ± 0.002; refractive index ([2]; 308.15 K, Wavelength=404.7 nm): 1.43955 ± 0.002; refractive index ([2]; 308.15 K, Wavelength=435.8 nm): 1.43622 ± 0.002; refractive index ([2]; 308.15 K, Wavelength=486.1 nm): 1.43239 ± 0.002; refractive index ([2]; 308.15 K, Wavelength=546.1 nm): 1.42919 ± 0.002; refractive index ([2]; 308.15 K, Wavelength=587.6 nm): 1.42752 ± 0.002; refractive index ([2]; 308.15 K, Wavelength=632.8 nm): 1.426 ± 0.002; refractive index ([2]; 308.15 K, Wavelength=644 nm): 1.42565 ± 0.002; refractive index ([2]; 308.15 K, Wavelength=706.5 nm): 1.42397 ± 0.002; refractive index ([2]; 313.15 K, Wavelength=404.7 nm): 1.43771 ± 0.002; refractive index ([2]; 313.15 K, Wavelength=435.8 nm): 1.43437 ± 0.002; refractive index ([2]; 313.15 K, Wavelength=486.1 nm): 1.43055 ± 0.002; refractive index ([2]; 313.15 K, Wavelength=546.1 nm): 1.42738 ± 0.002; refractive index ([2]; 313.15 K, Wavelength=587.6 nm): 1.42572 ± 0.002; refractive index ([2]; 313.15 K, Wavelength=632.8 nm): 1.4242 ± 0.002; refractive index ([2]; 313.15 K, Wavelength=644 nm): 1.42386 ± 0.002; refractive index ([2]; 313.15 K, Wavelength=706.5 nm): 1.42219 ± 0.002; refractive index ([2]; 318.15 K, Wavelength=404.7 nm): 1.43584 ± 0.002; refractive index ([2]; 318.15 K, Wavelength=435.8 nm): 1.43252 ± 0.002; refractive index ([2]; 318.15 K, Wavelength=486.1 nm): 1.42875 ± 0.002; refractive index ([2]; 318.15 K, Wavelength=546.1 nm): 1.42557 ± 0.002; refractive index ([2]; 318.15 K, Wavelength=587.6 nm): 1.42392 ± 0.002; refractive index ([2]; 318.15 K, Wavelength=632.8 nm): 1.42243 ± 0.002; refractive index ([2]; 318.15 K, Wavelength=644 nm): 1.42208 ± 0.002; refractive index ([2]; 318.15 K, Wavelength=706.5 nm): 1.42043 ± 0.002
